We go through 15 compounds from patent US10793522B2, “Sulfonamides as inhibitors of the uptake of extracellular citrate” (Boehringer Ingelheim International GmbH, priority 2016, dated 2020).

The target in assay [1] is T1, hSLC13A5 (Homo sapiens, UniProt Q86YT5). Nature of the assay: Recombinant hSLC13A5/14C-citrate uptake assay. The format is cell-based. As to conditions: HEK293 Flp-In cells over-expressing hSLC13A5; WGA-PVT SPA beads; 14C-citrate approx. 2 μM; 4 h. From the text:
(5) Recombinant hSLC13A5/^14C-Citrate Uptake Assay
The human embryonic kidney 293 (HEK 293)-Flp-In cells (293Flp-In-hSLC13A5) over-expressing hSLC13A5 transporter were cloned: The originating plasmid pcDNA3.1-hSLC13A5 containing hSLC13A5 was synthesized at GeneArt. The cDNA for hSLC13A5 was taken from this plasmid by means of PCR amplification using primers with added HindIII (N-terminal) and XhoI (C-terminal) restriction sites and sub-cloned in frame into pcDNA5/FRT from Invitrogen using the respective restriction enzymes. HEK293 Flp-In cells from Invitrogen were stably co-transfected using the pcDNA/FRT-hSLC13A5 plasmid as well as the pOG44 plasmid.
HEK 293-Flp-In cells are used that stably over-express hSLC13A5 transporter which is responsible for the uptake of citrate into these cells.
The uptake of ^14C-citrate into the 293Flp-In-hSLC13A5 cells is monitored using the WGA-PVT SPA (wheat germ agglutinin-polyvinyltoluene scintillation proximity assay) beads that bind to the 293Flp-In cells due to their WGA-PVT surface. This assay format is based on the imported radioactive citrate brought into proximity with the SPA beads by virtue of the biological processes within the cells. The radioactive decay is converted into a light signal that can be measured using e.g. the TopCount plate reader.
(§1) Method: ^14C-Citrate Uptake Assay
Test Compound Dilutions (2Fold-Concentrated):
Starting from 10 mM stock solutions in 100% DMSO, compounds are diluted in pure DMSO using the appropriate dilution steps.
Prior to the uptake assay, 200 μL assay medium (lx HBSS (with Ca^2+ and Mg^2+, w/o Phenolred), contains 5.56 mM D(+)-Glucose)+19.44 mM D(+)-Glucose (final concentration of D(+)-Glucose is 25 mM))+4.8 μL compound solution (or pure DMSO for non-inhibited control wells) are mixed (final DMSO concentration in the assay: 1% (v/v)).
After preparing the 2fold-concentrated test compound dilutions, 50 μL are pipetted to each well of white OptiPlates-96 and incubated at 37° C. in an incubator.
^14C-Citrate Working Solution (Volumes Required Per 96-Well):
The 293Flp-In-hSLC13A5 cells are cultivated in cell culture medium (DMEM+10% fetal calf serum+100 μg/mL Hygromycin B). The medium of the confluent cultures is discarded and the cells are washed with DPBS (w/o Mg^2+ w/o Ca^2+). The cells are detached by the addition of 2.0 mL Accumax per 75 cm^2 culture flask for up to 3 minutes at 37° C. and resuspended in 10 mL assay medium. After cell counting, 50,000 cells/well are administered in a volume of 50 μL into the white OptiPlates-96 containing the respective test compound concentrations. Following a 20 min incubation at 37° C. in the cell culture incubator, 20 μL of ^14C-citrate working solution is added to each well (final volume per well: 120 μL; final ^14C-citrate concentration: approx. 2 μM/well).
After incubation for 4 h at 37° C. in a humid cell culture incubator and the addition of 30 μL of WGA-PVT SPA beads to each well (0.25 mg/well), the plates are sealed on the top using a transparent plastic foil. Incubate the plates for 1 h by room temperature and gentle shaking.
After incubation, the plate is placed into the TopCount NXT HTS and the signal is recorded.
The performance of the test compounds is calculated as follows:
Wells containing cells incubated with 1% DMSO only deliver values for the non-inhibited ^14C-citrate uptake into 293Flp-In-hSLC13A5 cells (100% CTL). Wells containing cells which have received 30 mM non-labelled potassium citrate solution in addition to the ^14C-citrate working solution deliver values for the background (0% CTL).
(§2) The IC50 values of the compounds are calculated in IDBS XLfit by sigmoidal dose-response (variable slope).

The target of assay [2] is T1, hSLC13A5. In words: HepG2/14C-citrate uptake assay. The class given is cell-based. Details: HepG2 cells endogenously express hSLC13A5 transporter which is responsible for the uptake of citrate into these cells; endogenous in cells; host or cells: HepG2. The note with it: HepG2 cells endogenously expressing hSLC13A5; Cytostar-T; 14C-citrate ~1.8 μM; incubation over night.
Source text: (4) HepG2/^14C-Citrate Uptake Assay
HepG2 cells endogenously expressing hSLC13A5 were obtained from the Wistar Institute (Knowles et al., Science 1980, 209, 497-499).
HepG2 cells endogenously express hSLC13A5 transporter which is responsible for the uptake of citrate into these cells. […] The uptake of ^14C-citrate into HepG2 cells is monitored using the Cytostar-T assay. This assay format is based on the imported radioactive citrate brought into proximity with the scintillant contained within the base of the plate by virtue of the biological processes within the cells. The radioactive decay is converted to a light signal based on the integration of the scintillation matrix into the assay plate.
as §1
Starting from 10 mM stock solutions in 100% DMSO, compounds are diluted in pure DMSO using the appropriate dilution steps. Prior to the uptake assay, 400 μL assay medium+4.8 μL compound solution (or pure DMSO for non-inhibited control wells) are mixed (final DMSO concentration in the assay: 1% (v/v)) ^14C-citrate working solution (volumes required per 96-well):
The HepG2 cells are cultivated in cell culture medium (EMEM+10% fetal calf serum+1×NEAA and 10 mM L-Glutamin) For the assay, the medium of the confluent cultures is discarded and the cells are washed with DPBS w/o Mg^2+ w/o Ca^2+. The cells are detached by the addition of 1.0 mL 2× Trypsin in DPBS w/o Mg^2+ w/o Ca^2+ with 7.5 mM EDTA per 75 cm^2 culture flask for up to 3 minutes at 37° C. and resuspended in 10 mL cell culture medium. Following cell counting, 100,000 cells/well are seeded in a volume of 200 μL into Cytostar-T Scintillating 96-well microplates. After overnight incubation in a humid cell culture incubator at 37° C., 5% CO2, the cell culture medium is carefully aspirated and the cells are incubated with 200 μL prewarmed (37° C.) assay medium (50% DMEM+50% Ham's F-12+15 mM HEPES (pH 7.4) (medium contains 15.5 m M D(+)-glucose) per well for at least 1 h prior to the experiment.
Immediately prior to uptake assay, the assay medium is carefully removed and 100 μL test compound dilution is added to each well (n=3).
Following a 20 min incubation at 37° C. in the cell culture incubator, 20 μL of ^14C-citrate working solution is added to each well (final volume per well: 120 μL; final ^14C-citrate concentration ˜1.8 μM/well)).
After incubation over night at 37° C. in the cell culture incubator, the plates are sealed on the top using a transparent plastic foil and on the bottom using a white plastic foil. Following the sealing, the plate is placed into the TopCount NXT HTS and the signal is recorded.
as §2

T1 sequence (Q86YT5 whole entry): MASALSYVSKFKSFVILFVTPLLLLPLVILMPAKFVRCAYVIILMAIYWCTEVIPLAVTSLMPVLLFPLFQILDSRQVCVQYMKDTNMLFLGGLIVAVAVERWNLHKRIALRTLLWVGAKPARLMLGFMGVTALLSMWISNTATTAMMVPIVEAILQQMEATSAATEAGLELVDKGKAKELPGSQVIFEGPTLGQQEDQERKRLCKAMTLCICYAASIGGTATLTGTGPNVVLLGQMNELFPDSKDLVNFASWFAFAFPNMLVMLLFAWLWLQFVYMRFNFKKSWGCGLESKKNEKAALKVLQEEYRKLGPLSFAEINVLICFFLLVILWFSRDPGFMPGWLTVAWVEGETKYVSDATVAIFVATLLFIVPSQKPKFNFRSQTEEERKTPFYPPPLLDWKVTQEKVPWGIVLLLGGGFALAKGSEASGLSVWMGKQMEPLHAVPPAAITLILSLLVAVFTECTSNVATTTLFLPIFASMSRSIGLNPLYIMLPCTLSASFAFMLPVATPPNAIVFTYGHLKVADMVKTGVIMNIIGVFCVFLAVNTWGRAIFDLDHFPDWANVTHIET

`Cc1cc(C)cc(S(=O)(=O)N2CCC(C(=O)NCc3nc(C)cs3)CC2)c1` [(I-41)]: the IC50 in assay [1] came to 438 nM; in assay [2], 155 nM.
For the compound `COc1ccccc1CNC(=O)C1CCN(S(=O)(=O)c2cc(C)cc(C)c2)CC1` [(I-44)], the IC50 was determined as 703 nM in assay [1] and 132 nM in assay [2].
With `Cc1cc(C)cc(S(=O)(=O)N2CCC(C(=O)NCc3ncc(C)s3)CC2)c1` [(I-46)], the results for the IC50 in assay [1] and in assay [2] were 398 nM and 202 nM, respectively.
In the same order, the values of `CCOc1cc(Cl)cc(S(=O)(=O)N2CCC(C(=O)NCc3ccc(C#N)cc3F)CC2)c1` [(I-50)] are 127 nM and 73 nM.
As for `CCOc1cc(Cl)cc(S(=O)(=O)N2CCC(C(=O)NCc3ccc(F)cc3)CC2)c1` [(I-51)], the IC50 in assay [1] was determined as 66 nM; in assay [2], 14 nM.
In the same order, the values of `CCOc1cc(Cl)cc(S(=O)(=O)N2CCC(C(=O)NCc3ccc(Cl)cn3)CC2)c1` [(I-52)] are 200 nM and 51 nM.
`CCOc1cc(Cl)cc(S(=O)(=O)N2CCC(C(=O)NCc3ccccn3)CC2)c1` [(I-53)]: the IC50 amounted to 410 nM in assay [1] and 110 nM in assay [2].
Consider `CCOc1cc(Cl)cc(S(=O)(=O)N2CCC(C(=O)NCc3ccc(C#N)cc3)CC2)c1` [(I-54)], for which the IC50 worked out at 231 nM in assay [1] and 62 nM in assay [2].
For `CCOc1cc(Cl)cc(S(=O)(=O)N2CCC(C(=O)NCc3ccc(F)cn3)CC2)c1` [(I-55)], the IC50 in assay [1] came to 189 nM; in assay [2], 56 nM.
In the same order, the values of `COc1cc(Cl)cc(S(=O)(=O)N2CCC(C(=O)NCc3ccc(F)cn3)CC2)c1` [(I-56)] are 436 nM and 292 nM.
In the case of `COc1cc(Cl)cc(S(=O)(=O)N2CCC(C(=O)NCc3ccc(F)cc3)CC2)c1` [(I-57)], the figures for the IC50 in assay [1] and in assay [2] were 167 nM and 48 nM, respectively.
Turning to `COc1ncccc1CNC(=O)C1CCN(S(=O)(=O)c2cc(C)cc(Br)c2)CC1` [(I-58)], the IC50 is 837 nM in assay [1] and 168 nM in assay [2].
For `CCc1ccc(CNC(=O)C2CCN(S(=O)(=O)c3cc(C)cc(Br)c3)CC2)nc1` [(I-59)], the IC50 in assay [1] is 98 nM; in assay [2] it was 27 nM.
On to `Cc1cc(Br)cc(S(=O)(=O)N2CCC(C(=O)NCc3cccnc3)CC2)c1` [(I-60)], for which the values for the IC50 in assay [1] and in assay [2] were 918 nM and 422 nM, respectively.
In the case of `Cc1cc(Br)cc(S(=O)(=O)N2CCC(C(=O)NCc3ccc(F)cn3)CC2)c1` [(I-62)], the IC50 turned out to be 232 nM in assay [1] and 99 nM in assay [2].

As a reminder, the IC50 is the point on the concentration scale where inhibition reaches its midpoint.
